Results on 1 compound are retold here after ChEMBL document CHEMBL5252515, “Discovery of 6-Amino-2-{[(1S)-1-methylbutyl]oxy}-9-[5-(1-piperidinyl)pentyl]-7,9-dihydro-8H-purin-8-one (GSK2245035), a Highly Potent and Selective Intranasal Toll-Like Receptor 7 Agonist for the Treatment of Asthma” (J Med Chem, 2016).

For this assay, the system named is PBMC. Put plainly: Immunomodulatory activity in human PBMC assessed as reduction in timothy grass induced IL-5 level after 6 days. The assay is classed as functional, cell-based. Particulars: dose 0.01-10000 nM, time 6.0 day.

For `CCC[C@H](C)Oc1nc(N)c2[nH]c(=O)n(CCCCCN3CCCCC3)c2n1` [GSK-2245035], the Activity entry is “Dose-Dependent Effect”.
